Here are results for 24 compounds from US20090197910A1, “NOVEL VIRAL REPLICATION INHIBITORS” (KATHOLIEKE UNIVERSITEIT LEUVEN, priority 2006, published 2009).

One series deals with HCV Subgenomic Replicon. Put plainly: HCV-Huh-5-2 replicon cell assay (luciferase). The class given is cell-based, Hepatitis C virus. To be noted: for pEC50: Hepatitis C virus, HCV subgenomic replicon in Huh-5-2 cells, 72 hours, luciferase, read-out: EC50 (concentration required to inhibit luciferase activity in the replicon system by 50%); for SI (selectivity index, ratio of CC50 to EC50): Huh-5-2 cells. As for the experimental part:
(§1) Huh-5-2 cells [a cell line with a persistent HCV replicon I3891uc-ubi-neo/NS3-3′/5.1; replicon with firefly luciferase-ubiquitin-neomycin phosphotransferase fusion protein and EMCV-IRES driven NS3-5B HCV polyprotein] was cultured in RPMI medium (Gibco) supplemented with 10% fetal calf serum, 2 mM L-glutamine (Life Technologies), 1× non-essential amino acids (Life Technologies); 100 IU/ml penicillin and 100 ug/ml streptomycin and 250 ug/ml G418 (Geneticin, Life Technologies). Cells were seeded at a densitiy of 7000 cells per well in 96 well View Plate™ (Packard) in medium containing the same components as described above, except for G418. Cells were allowed to adhere and proliferate for 24 hr. At that time, culture medium was removed and serial dilutions of the test compounds were added in culture medium lacking G418. Interferon alfa 2a (500 IU) was included as a positive control. Plates were further incubated at 37° C. and 5% CO2 for 72 hours. Replication of the HCV replicon in Huh-5 cells results in luciferase activity in the cells. Luciferase activity is measured by adding 50 μl of 1× Glo-lysis buffer (Promega) for 15 minutes followed by 50 ul of the Steady-Glo Luciferase assay reagent (Promega). Luciferase activity is measured with a luminometer and the signal in each individual well is expressed as a percentage of the untreated cultures. Parallel cultures of Huh-5-2 cells, seeded at a density of 7000 cells/well of classical 96-well cell culture plates (Becton-Dickinson) are treated in a similar fashion except that no Glo-lysis buffer or Steady-Glo Luciferase reagent is added. Instead the density of the culture is measured by means of the MTS method (Promega).
For orientation: Replicon systems follow genome replication, usually without infectious particles.

The nature of series [1]: Cytostatic effect on Huh-5-2 cells (MTS method, parallel cultures). Particulars: human, read-out: CC50 (concentration required to inhibit the proliferation of exponentially growing Huh-5-2 cells by 50%). The class given is cell-based. As for the experimental part:
as §1
A general note: Formazan colour is commonly taken as a measure of viable cells.

The structures appear in SMILES notation. pEC50: −log10 of the molar value.

Regarding `O=c1oc2ccccc2cc1CSc1nc2ccccc2[nH]1` [Compound 4a, 3-(1H-Benzoimidazol-2-ylsulfanylmethyl)-chromen-2-one], in the series on HCV Subgenomic Replicon, the pEC50 is 4.58 and the “SI (selectivity index, ratio of CC50 to EC50)” value is given as 3.38. Also, the CC50 at 72 h in series [1] was 90.1 µM.
With `O=c1oc2ccccc2cc1CSc1nc2cc(F)ccc2[nH]1` [Compound 4b, 3-(5-Fluoro-1H-benzoimidazol-2-ylsulfanylmethyl)-chromen-2-one], in the series on HCV Subgenomic Replicon, the pEC50 is 4.94 and the “SI (selectivity index, ratio of CC50 to EC50)” value was determined as 3.89. For the same compound, the CC50 at 72 h in series [1] was 44.8 µM.
On to `O=C(c1ccccc1)c1ccc2[nH]c(SCc3cc4ccccc4oc3=O)nc2c1` [Compound 4c, 3-(5-Benzoyl-1H-benzoimidazol-2-ylsulfanylmethyl)-chromen-2-one], for which, in the series with HCV Subgenomic Replicon, the pEC50 was 5.18 and the “SI (selectivity index, ratio of CC50 to EC50)” value was determined as 5.58. Also, in series [1], the CC50 at 72 h came to 36.8 µM.
For the compound `Cc1cc2nc(SCc3cc4ccccc4oc3=O)[nH]c2cc1C` [Compound 4d, 3-(5,6-Dimethyl-1H-benzoimidazol-2-ylsulfanylmethyl)-chromen-2-one], in the series on HCV Subgenomic Replicon, the pEC50 was 4.82 and the “SI (selectivity index, ratio of CC50 to EC50)” value was found to be 4.37. Besides, the CC50 at 72 h in series [1] worked out at 66.6 µM.
On the same counts, the results for `O=c1oc2ccccc2cc1CSc1nc2cc(Cl)c(Cl)cc2[nH]1` [Compound 4e, 3-(5,6-Dichloro-1H-benzoimidazol-2-ylsulfanylmethyl)-chromen-2-one] are 4.81, 4.80 and 74.4 µM.
The matching figures for `Cc1cccc2cc(CSc3nc4ccccc4[nH]3)c(=O)oc12` [Compound 4f, 3-(1H-benzoimidazol-2-ylsulfanylmethyl)-8-methyl-chromen-2-one]: 5.00, 2.77 and 27.3 µM.
The matching figures for `O=c1oc2ccc(Br)cc2cc1CSc1nc2ccccc2[nH]1` [Compound 4g, 3-(1H-Benzoimidazol-2-ylsulfanylmethyl)-6-bromo-chromen-2-one]: 5.40, 10.4 and 41.7 µM.
`COc1cccc2cc(CSc3nc4cc(F)ccc4[nH]3)c(=O)oc12` [Compound 4h, 3-(5-Fluoro-1H-benzoimidazol-2-ylsulfanylmethyl)-8-methoxy-chromen-2-one]: in the series on HCV Subgenomic Replicon, the pEC50 is 4.80 and the “SI (selectivity index, ratio of CC50 to EC50)” value is given as 2.63. In addition, in series [1], the CC50 at 72 h stood at 41.9 µM.
On the same counts, the results for `O=c1oc2ccc(Br)cc2cc1CSc1nc2cc(F)ccc2[nH]1` [Compound 4i, 6-Bromo-3-(5-fluoro-1H-benzoimidazol-2-ylsulfanylmethyl)-chromen-2-one] are 5.47, 7.96 and 26.7 µM.
On the same counts, the results for `COc1cccc2cc(CSc3nc4cc(Cl)c(Cl)cc4[nH]3)c(=O)oc12` [Compound 4j, 3-(5,6-Dichloro-1H-benzoimidazol-2-ylsulfanylmethyl)-8-methoxy-chromen-2-one] are 5.45, 3.12 and 11.1 µM.
The matching figures for `O=c1oc2ccc(Br)cc2cc1CSc1nc2cc(Cl)c(Cl)cc2[nH]1` [Compound 4k, 6-Bromo-3-(5,6-dichloro-1H-benzoimidazol-2-ylsulfanylmethyl)-chromen-2-one]: 5.64, 19.3 and 44.1 µM.
As to `CC(=O)OCC1OC(n2c(SCc3cc4ccccc4oc3=O)nc3ccccc32)C(OC(C)=O)C(OC(C)=O)C1OC(C)=O` (stereo not drawn) [Compound 7a, Acetic acid 3,5-diacetoxy-2-acetoxymethyl-6-[2-(2-oxo-2H-chromen-3-ylmethylsulfanyl)-benzoimidazol-1-yl]-tetrahydro-pyran-4-yl ester], in the series with HCV Subgenomic Replicon, the pEC50 was 4.95 and the “SI (selectivity index, ratio of CC50 to EC50)” value worked out at 6.88. Also, the CC50 at 72 h in series [1] came to 76.4 µM.
The matching figures for `CC(=O)OCC1OC(n2c(SCc3cc4ccccc4oc3=O)nc3cc(C)ccc32)C(OC(C)=O)C(OC(C)=O)C1OC(C)=O` (stereo not drawn) [Compound 7b, Acetic acid 3,5-diacetoxy-2-acetoxymethyl-6-[5-methyl-2-(2-oxo-2H-chromen-3-ylmethylsulfanyl)-benzoimidazol-1-yl]-tetrahydro-pyran-4-yl ester]: 5.08, 5.42 and 44.8 µM.
On the same counts, the results for `CC(=O)OCC1OC(n2c(SCc3cc4ccccc4oc3=O)nc3cc(F)ccc32)C(OC(C)=O)C(OC(C)=O)C1OC(C)=O` (stereo not drawn) [Compound 7c, Acetic acid 3,5-diacetoxy-2-acetoxymethyl-6-[5-fluoro-2-(2-oxo-2H-chromen-3-ylmethylsulfanyl)-benzoimidazol-1-yl]-tetrahydro-pyran-4-yl ester] are 5.41, 11.1 and 43.1 µM.
For `CC(=O)OCC1OC(n2c(SCc3cc4ccccc4oc3=O)nc3cc(Cl)c(Cl)cc32)C(OC(C)=O)C(OC(C)=O)C1OC(C)=O` (stereo not drawn) [Compound 7d, Acetic acid 3,5-diacetoxy-2-acetoxymethyl-6-[5,6-dichloro-2-(2-oxo-2H-chromen-3-ylmethylsulfanyl)-benzoimidazol-1-yl]-tetrahydro-pyran-4-yl ester], in the series on HCV Subgenomic Replicon, the pEC50 is 5.50 and the “SI (selectivity index, ratio of CC50 to EC50)” value is given as 6.33. Also, in series [1], the CC50 at 72 h is 19.8 µM.
Turning to `CC(=O)OCC1OC(n2c(SCc3cc4cc(Br)ccc4oc3=O)nc3ccccc32)C(OC(C)=O)C(OC(C)=O)C1OC(C)=O` (stereo not drawn) [Compound 7e, Acetic acid 4,5-diacetoxy-2-acetoxymethyl-6-[2-(6-bromo-2-oxo-2H-chromen-3-ylmethylsulfanyl)-benzoimidazol-1-yl]-tetrahydro-pyran-3-yl ester], in the series on HCV Subgenomic Replicon, the pEC50 is 5.39 and the “SI (selectivity index, ratio of CC50 to EC50)” value was 10.4. In addition, the CC50 at 72 h in series [1] was determined as 43.1 µM.
For `CC(=O)OCC1OC(n2c(SCc3cc4cc(Br)ccc4oc3=O)nc3cc(F)ccc32)C(OC(C)=O)C(OC(C)=O)C1OC(C)=O` (stereo not drawn) [Compound 7f, Acetic acid 3,5-diacetoxy-2-acetoxymethyl-6-[2-(6-bromo-2-oxo-2H-chromen-3-ylmethylsulfanyl)-5-fluoro-benzoimidazol-1-yl]-tetrahydro-pyran-4-yl ester], in the series with HCV Subgenomic Replicon, the pEC50 was 5.48 and the “SI (selectivity index, ratio of CC50 to EC50)” value stood at 6.59. In addition, the CC50 at 72 h in series [1] stood at 21.9 µM.
The matching figures for `COc1cccc2cc(CSc3nc4cc(Cl)c(Cl)cc4n3C3OC(COC(C)=O)C(OC(C)=O)C(OC(C)=O)C3OC(C)=O)c(=O)oc12` (stereo not drawn) [Compound 7h, Acetic acid 3,4,5-triacetoxy-6-[5,6-dichloro-2-(8-methoxy-2-oxo-2H-chromen-3-ylmethylsulfanyl)-benzoimidazol-1-yl]-tetrahydro-pyran-2-ylmethyl ester]: 5.36, 7.62 and 33.1 µM.
For the compound `COc1cccc2cc(CSc3nc4cccnc4[nH]3)c(=O)oc12` [Compound 16b, 3-(3H-Imidazo[4,5-b]pyridin-2-ylsulfanylmethyl)-8-methoxy-chromen-2-one], in the series with HCV Subgenomic Replicon, the pEC50 is 4.96 and the “SI (selectivity index, ratio of CC50 to EC50)” value is 2.78. Moreover, in series [1], the CC50 at 72 h turned out to be 30.3 µM.
On the same counts, the results for `O=c1oc2ccc(Br)cc2cc1CSc1nc2cccnc2[nH]1` [Compound 16c, 3-(3H-Imidazo[4,5-b]pyridin-2-ylsulfanylmethyl)-6-bromo-chromen-2-one] are 5.17, 18.82 and 128 µM.
Consider `O=c1oc2ccccc2cc1CSc1nc2cnc(Cl)nc2[nH]1` [Compound 16d, 3-(2-Chloro-9H-purin-8-ylsulfanylmethyl)-chromen-2-one], for which, in the series with HCV Subgenomic Replicon, the pEC50 is 5.69 and the “SI (selectivity index, ratio of CC50 to EC50)” value came out at 53.69. The CC50 at 72 h in series [1] turned out to be 109 µM.
`COc1cccc2cc(CSc3nc4cnc(Cl)nc4[nH]3)c(=O)oc12` [Compound 16e, 3-(2-Chloro-9H-purin-8-ylsulfanylmethyl)-8-methoxy-chromen-2-one]: in the series on HCV Subgenomic Replicon, the pEC50 was 4.71 and the “SI (selectivity index, ratio of CC50 to EC50)” value is given as 4.80. For the same compound, the CC50 at 72 h in series [1] stood at 94 µM.
The matching figures for `O=c1oc2ccccc2cc1CSc1nc2ccccc2o1` [Compound 19a, 3-(Benzooxazol-2-ylsulfanylmethyl)-chromen-2-one]: 4.93, 3.86 and 45.2 µM.
In the case of `O=c1oc2ccc(Br)cc2cc1CSc1nc2ccccc2o1` [Compound 19c, 3-(Benzooxazol-2-ylsulfanylmethyl)-6-bromo-chromen-2-one], in the series on HCV Subgenomic Replicon, the pEC50 is 4.93 and the “SI (selectivity index, ratio of CC50 to EC50)” value was found to be 11.10. In addition, the CC50 at 72 h in series [1] amounted to 131 µM.
